In US4179464A, “Preparation of N-(phosphonoacetyl)-L-aspartic acid” (priority 1978, dated 1979):
“Also recorded” adds a separate entry of the source. Counter-ions that a name gives are not always drawn. Like-named read-outs stand apart in the source and are kept apart here.

Tests used:
[1] = solubility; format: physicochemical
Experimental: (§1) The following determinations were made as to the physical properties of the disodium PALA. Except for the test for stability, these tests were carried out on material free of solvent contamination.

[2] = system: Lewis Lung tumor; details: NCI screening program, data through Aug. 31, 1976; cited from earlier work
[3] = system: aspartate transcarbamylase; details: Stark et al., J. Biol. Chem., 246, 6599 (1971); cited from earlier work
[4] = system: pyrimidine nucleotide biosynthesis; details: Stark et al. (1974); cited from earlier work
[5] = system: B16 tumor; details: NCI screening program, data through Aug. 31, 1976; cited from earlier work
[6] = system: P388 tumor; details: NCI screening program, data through Aug. 31, 1976; cited from earlier work
[7] = hygroscopic character; format: physicochemical; details: for physical state after moisture uptake: atmospheric moisture, eventually
Experimental: as §1
Hygroscopic Character. Tetrasodium PALA absorbs atmospheric moisture 1.5 times faster than the disodium salt.

[8] = system: expected tumor systems; test: activity of tetrasodium PALA samples in tumor systems; format: in vivo
Source text: In spite of the above mentioned problems involving the consistency of elemental analyses and the low hydrogen values, the tetrasodium PALA samples were characterized as highly pure materials by nmr, optical rotation (comparison with literature value), and thin layer chromatography (homogeneous in four different solvent systems).

[9] = format: physicochemical
Experimental: as §1
pH. A 2% solution of the disodium salt in water has a pH of 4.08.

[10] = stability on drying in vacuo at 140° (NMR, TLC); format: physicochemical; details: dried in vacuo at 140° for 15.5 hours, sample containing acetic acid and ethanol
Experimental: as §1
Stability. A sample of disodium PALA was dried in vacuo at 140° for 15.5 hours. […] This is believed to be an ester produced at the elevated temperature in the presence of ethanol and acetic acid.

[11] = system: tumor systems; test: preliminary in vivo screening of PALA esters; details: relative to tetrasodium PALA

Question: With O=C(O)C[C@H](NC(=O)CP(=O)(O)O)C(=O)O [calcium salt of PALA] as the compound, how does the “water solubility (in words)” value ([1]; water) read?
Answer: dissolves in water permitting ready formulation

Question: What about the “rate of dissolution in water” value ([1]; water, results tentative) of the same compound?
Answer: dissolves relatively slowly

Question: With O=C(O)C[C@H](NC(=O)CP(=O)(O)O)C(=O)O [PALA, N-(phosphonoacetyl)-L-aspartic acid] as the compound, how does the “activity against Lewis Lung tumor system” value [2] read?
Answer: active

Question: And the “transition state analogue inhibitor of aspartate transcarbamylase” value [3]?
Answer: transition state analogue inhibitor of aspartate transcarbamylase

Question: What about the “inhibition of pyrimidine nucleotide biosynthesis in vitro” value [4] of the same compound?
Answer: inhibition of pyrimidine nucleotide biosynthesis in vitro

Question: What about the “activity against B16 tumor system” value [5] of the same compound?
Answer: active

Question: What about the “water solubility (in words)” value ([1]; water) of the same compound?
Answer: high water solubility

Question: And the “activity against P388 tumor system” value [6]?
Answer: active

Question: With O=C(O)C[C@H](NC(=O)CP(=O)(O)O)C(=O)O [cyclohexylamine salt] as the compound, how does the “hygroscopicity (in words)” value [7] read?
Answer: completely nonhygroscopic

Question: Which solubility in ethanol ([1]; ethanol, preliminary) does the source give for O=C(O)C[C@H](NC(=O)CP(=O)(O)O)C(=O)O [N,N'-dibenzylethylenediamine salt] here?
Answer: soluble in ethanol

Question: For O=C(O)C[C@H](NC(=O)CP(=O)(O)O)C(=O)O [tetrasodium PALA, L-Aspartic acid, N-(phosphonoacetyl)-, tetrasodium salt], which “activity in the expected tumor systems” value [8] is on record?
Answer: active in the expected tumor systems

Question: What about the “pH when formulated in water” value ([9]; formulated in water) of the same compound?
Answer: 9.2

Question: And the “physiological acceptability of alkalinity in water” value ([9]; formulated in water, pH 9.2)?
Answer: alkaline (pH 9.2) to a degree generally considered harmful physiologically

Question: And the “hygroscopicity (in words)” value [7]?
Answer: hygroscopic; also recorded: high degree of hygroscopicity

Question: What about the “physical state after moisture uptake” value [7] of the same compound?
Answer: eventually take up enough moisture so as to lose their solid characteristics

Question: And the “rate of absorption of atmospheric moisture relative to the disodium salt” value ([7]; tetrasodium versus disodium salt, solvent-free material)?
Answer: 1.5 times faster

Question: Which “structural integrity by NMR” value [10] does the source give for O=C([O-])C[C@H](NC(=O)CP(=O)(O)O)C(=O)[O-].[Na+].[Na+] [disodium PALA, L-Aspartic acid, N-(phosphonoacetyl)-, disodium salt] here?
Answer: retained its structural integrity

Question: And the “change in thin layer chromatography” value ([10]; believed to be an ester)?
Answer: formation of a new, faster-running spot

Question: What about the “water solubility (in words)” value ([1]; water) of the same compound?
Answer: extremely water soluble

Question: And the solubility ([1]; water, solvent-free material)?
Answer: > 950 mg/mL

Question: What about the “pH of aqueous solution” value ([9]; 2% solution in water) of the same compound?
Answer: 4.08

Question: What about the “physical state after moisture uptake” value [7] of the same compound?
Answer: eventually take up enough moisture so as to lose their solid characteristics

Question: And the “hygroscopicity (in words)” value ([7]; disodium salt)?
Answer: less hygroscopic than tetrasodium PALA

Question: And the “hygroscopicity (in words)” value ([7]; listed as Disodium PALA, disodium salt)?
Answer: less hygroscopic than the tetrasodium compound

Question: Which “fold less active than tetrasodium PALA” value [11] does the source give for O=C(CP(=O)(O)O)N[C@@H](CC(=O)OCc1ccccc1)C(=O)OCc1ccccc1 [XI, L-Aspartic acid, N-(phosphonoacetyl)-, dibenzyl ester, complexed with cyclohexylamine] here?
Answer: approximately 100 fold

Question: What about the “hygroscopicity (in words)” value [7] of the same compound?
Answer: apparently less hygroscopic than (X)

Question: For O=C(CP(=O)(O)O)N[C@@H](CC(=O)OCc1ccccc1)C(=O)OCc1ccccc1 [IV, L-Aspartic acid, N-(phosphonoacetyl)-, dibenzyl ester], which “water solubility (in words)” value [1] is on record?
Answer: insoluble in water

Question: And the “hygroscopicity (in words)” value ([7]; listed as dibenzyl PALA)?
Answer: hygroscopic

Question: What does the source list for O=C(CP(=O)(O)O)N[C@@H](CC(=O)OCc1ccccc1)C(=O)OCc1ccccc1 [X]?
Answer: fold less active than tetrasodium PALA [11]: approximately 100 fold; hygroscopicity (in words) [7]: markedly hygroscopic
